Measured values: patent US7897582B2, “Oligonucleotide compositions and methods for the modulation of the expression of B7 protein” (Isis Pharmaceuticals, Inc., priority 2003, dated 2011)
Strand notation (5' to 3'): a small letter for the sugar, then the base; units joined by * are phosphorothioate-linked, units joined directly phosphodiester-linked; [ ] holds rarer units or linkages, { } end groups; capitals alone tell only the bases. e = 2'-O-(2-methoxyethyl) (MOE); [5mC] = 5-methylcytosine; d = 2'-deoxy (DNA)

Columns and labels:
Mouse B7-2 mRNA = Mouse B7-2 mRNA expression, screened as in Example 4; assay type: cell-based; design: % mRNA INHIBITION: concentration or dose not given beside the values; details: for % mRNA INHIBITION: screened as in Example 4; for % mRNA EXPRESSION: screened as in Example 4, basal = 100.0%
Procedure: For ribonuclease protection assays, cells were harvested 18 hours after completion of oligonucleotide treatment using a Totally RNA™ kit (Ambion, Austin, Tex.). The probes for the assay were generated from plasmids pcB7-2 (linearized by digestion with Bgl II) and pTRI-b-actin (Ambion Inc., Austin, Tex.). In vitro transcription of the linearized plasmid from the SP6 promoter was performed in the presence of α-^32P-UTP (800 Ci/mmole) yielding an antisense RNA complementary to the 3′ end of B7-2 (position 1044-1391). The probe was gel-purified after treatment with DNase I to remove DNA template. Ribonuclease protection assays were carried out using an RPA II™ kit (Ambion) according to the manufacturer's directions. Total RNA (5 μg) was hybridized overnight, at 42° C., with 10^5 cpm of the B7-2 probe or a control beta-actin probe. The hybridization reaction was then treated, at 37° C. for 30 minutes, with 0.4 units of RNase A and 2 units of RNase T1. Protected RNA was precipitated, resuspended in 10 μL of gel loading buffer and electrophoresed on a 6% acrylamide gel with 50% w/v urea at 20 W. The gel was then exposed and the lanes quantitated using a PhosphorImager (Molecular Dynamics, Sunnyvale, Calif.) essentially according to the manufacturer's instructions.
Oligonucleotides were screened as described in Example 4.

Mouse B7-1 mRNA = Mouse B7-1 mRNA expression, screened as in Example 4; assay type: cell-based; design: % mRNA INHIBITION: concentration or dose not given beside the values; details: Table 10

Substance	% mRNA INHIBITION (Mouse B7-2 mRNA)	% mRNA EXPRESSION (Mouse B7-2 mRNA)	% mRNA EXPRESSION (Mouse B7-1 mRNA)	% mRNA INHIBITION (Mouse B7-1 mRNA)
18084 (antisense eG*e[5mC]*eT*eG*e[5mC]*d[5mC]*dT*dA*d[5mC]*dA*dG*dG*dA*dG*d[5mC]*e[5mC]*eA*e[5mC]*eT*e[5mC]) [compound 18084]	63.6%	36.4%	–	–
18085 (antisense eT*e[5mC]*eA*eA*eG*dT*d[5mC]*d[5mC]*dG*dT*dG*d[5mC]*dT*dG*d[5mC]*e[5mC]*eT*eA*e[5mC]*eA) [compound 18085]	65.0%	35.0%	–	–
18086 (antisense eG*eT*e[5mC]*eT*eA*d[5mC]*dA*dG*dG*dA*dG*dT*d[5mC]*dT*dG*eG*eT*eT*eG*eT) [compound 18086]	59.9%	40.1%	–	–
18087 (antisense eA*eG*e[5mC]*eT*eT*dG*d[5mC]*dG*dT*d[5mC]*dT*d[5mC]*d[5mC]*dA*d[5mC]*eG*eG*eA*eA*eA) [compound 18087]	57.9%	42.1%	–	–
18088 (antisense eT*e[5mC]*eA*e[5mC]*eA*d[5mC]*dT*dA*dT*d[5mC]*dA*dA*dG*dT*dT*eT*e[5mC]*eT*e[5mC]*eT) [compound 18088]	47.7%	52.3%	–	–
18090 (antisense eG*eT*eG*eA*eA*dG*dT*d[5mC]*dG*dT*dA*dG*dA*dG*dT*e[5mC]*e[5mC]*eA*eG*eT) [compound 18090]	63.4%	36.6%	–	–
18091 (antisense eG*eT*eG*eA*e[5mC]*d[5mC]*dT*dT*dG*d[5mC]*dT*dT*dA*dG*dA*e[5mC]*eG*eT*eG*e[5mC]) [compound 18091]	62.9%	37.1%	–	–
18092 (antisense e[5mC]*eA*eT*e[5mC]*eT*dT*d[5mC]*dT*dT*dA*dG*dG*dT*dT*dT*e[5mC]*eG*eG*eG*eT) [compound 18092]	41.1%	58.9%	–	–
18093 (antisense eG*eG*e[5mC]*eT*eG*dT*dT*dG*dG*dA*dG*dA*dT*dA*d[5mC]*eT*eG*eA*eA*e[5mC]) [compound 18093]	67.3%	32.7%	–	–
18094 (antisense eG*eG*eG*eA*eA*dT*dG*dA*dA*dA*dG*dA*dG*dA*dG*eA*eG*eG*e[5mC]*eT) [compound 18094]	36.2%	63.8%	–	–
18095 (antisense eA*e[5mC]*eA*eT*eA*d[5mC]*dA*dA*dT*dG*dA*dT*dG*dA*dG*e[5mC]*eA*eG*e[5mC]*eA) [compound 18095]	65.7%	34.3%	–	–
18096 (antisense eG*eT*e[5mC]*eT*e[5mC]*dT*d[5mC]*dT*dG*dT*d[5mC]*dA*dG*d[5mC]*dG*eT*eT*eA*e[5mC]*eT) [compound 18096]	67.7%	32.3%	–	–
18098 (antisense eG*eG*eA*eT*eT*dG*d[5mC]*d[5mC]*dA*dA*dG*d[5mC]*d[5mC]*d[5mC]*dA*eT*eG*eG*eT*eG) [compound 18098]	67.8%	32.2%	–	–
18099 (antisense eG*e[5mC]*eA*eA*eT*dT*dT*dG*dG*dG*dG*dT*dT*d[5mC]*dA*eA*eG*eT*eT*e[5mC]) [compound 18099]	33.2%	66.8%	–	–
18100 (antisense e[5mC]*eA*eA*eT*e[5mC]*dA*dG*d[5mC]*dT*dG*dA*dG*dA*dA*d[5mC]*eA*eT*eT*eT*eT) [compound 18100]	32.8%	67.2%	–	–
18101 (antisense eT*eT*eT*eT*eG*dT*dA*dT*dA*dA*dA*dA*d[5mC]*dA*dA*eT*e[5mC]*eA*eT*eA) [compound 18101]	11.1%	88.9%	–	–
18102 (antisense e[5mC]*e[5mC]*eT*eT*e[5mC]*dA*d[5mC]*dT*d[5mC]*dT*dG*d[5mC]*dA*dT*dT*eT*eG*eG*eT*eT) [compound 18102]	66.2%	33.8%	–	–

Substance	% mRNA INHIBITION (Mouse B7-2 mRNA)	% mRNA EXPRESSION (Mouse B7-2 mRNA)	% mRNA EXPRESSION (Mouse B7-1 mRNA)	% mRNA INHIBITION (Mouse B7-1 mRNA)
18103 (antisense eT*eG*e[5mC]*eA*eT*dG*dT*dT*dA*dT*d[5mC]*dA*d[5mC]*d[5mC]*dA*eT*eA*e[5mC]*eT*e[5mC]) [compound 18103]	69.8%	30.2%	–	–
18104 (antisense eA*eG*eA*eG*eA*dA*dA*d[5mC]*dT*dA*dG*dT*dA*dA*dG*eA*eG*eT*e[5mC]*eT) [compound 18104]	–	–	60.0%	40.0%
18105 (antisense eT*eG*eG*e[5mC]*eA*dT*d[5mC]*d[5mC]*dA*d[5mC]*d[5mC]*d[5mC]*dG*dG*d[5mC]*eA*eG*eA*eT*eG) [compound 18105]	–	–	32.0%	68.0%
18106 (antisense TCGAGAAACAGAGATGTAGA; listed as DNA, chemistry not fully specified) [compound 18106]	–	–	51.0%	49.0%
18107 (antisense eT*eG*eG*eA*eG*d[5mC]*dT*dT*dA*dG*dG*d[5mC]*dA*d[5mC]*d[5mC]*eT*e[5mC]*e[5mC]*eT*eA) [compound 18107]	–	–	58.0%	42.0%
18108 (antisense eT*eG*eG*eG*eG*dA*dA*dA*dG*d[5mC]*d[5mC]*dA*dG*dG*dA*eA*eT*e[5mC]*eT*eA) [compound 18108]	–	–	82.0%	18.0%
18109 (antisense e[5mC]*eA*eG*e[5mC]*eA*d[5mC]*dA*dA*dA*dG*dA*dG*dA*dA*dG*eA*eA*eT*eG*eA) [compound 18109]	–	–	45.5%	54.5%
18111 (antisense eA*eA*eG*eT*e[5mC]*d[5mC]*dG*dG*dT*dT*d[5mC]*dT*dT*dA*dT*eA*e[5mC]*eT*e[5mC]*eG) [compound 18111]	–	–	38.0%	62.0%
18112 (antisense eG*e[5mC]*eA*eG*eG*dT*dA*dA*dT*d[5mC]*d[5mC]*dT*dT*dT*dT*eA*eG*eT*eG*eT) [compound 18112]	–	–	42.0%	58.0%
18114 (antisense e[5mC]*eG*eA*eA*eT*d[5mC]*d[5mC]*dT*dG*d[5mC]*d[5mC]*d[5mC]*d[5mC]*dA*dA*eA*eG*eA*eG*e[5mC]) [compound 18114]	–	–	25.6%	74.4%
18115 (antisense eA*e[5mC]*eT*eG*e[5mC]*dG*d[5mC]*d[5mC]*dG*dA*dA*dT*d[5mC]*d[5mC]*dT*eG*e[5mC]*e[5mC]*e[5mC]*e[5mC]) [compound 18115]	–	–	33.5%	66.5%
18116 (antisense eT*eT*eG*eA*eT*dG*dA*dT*dG*dA*d[5mC]*dA*dA*d[5mC]*dG*eA*eT*eG*eA*e[5mC]) [compound 18116]	–	–	65.6%	34.4%
18117 (antisense e[5mC]*eT*eG*eT*eT*dG*dT*dT*dT*dG*dT*dT*dT*d[5mC]*dT*e[5mC]*eT*eG*e[5mC]*eT) [compound 18117]	–	–	46.7%	53.3%
18118 (antisense eT*eG*eT*eT*e[5mC]*dA*dG*d[5mC]*dT*dA*dA*dT*dG*d[5mC]*dT*eT*e[5mC]*eT*eT*e[5mC]) [compound 18118]	–	–	31.7%	68.3%
18120 (antisense eT*e[5mC]*e[5mC]*eA*e[5mC]*dT*dT*d[5mC]*dA*dG*dT*d[5mC]*dA*dT*d[5mC]*eA*eA*eG*e[5mC]*eA) [compound 18120]	–	–	26.7%	73.3%
18121 (antisense eT*eG*e[5mC]*eT*e[5mC]*dA*dA*dT*dA*d[5mC]*dT*d[5mC]*dT*d[5mC]*dT*eT*eT*eT*eT*eA) [compound 18121]	–	–	114.0%	–
18122 (antisense eA*eG*eG*e[5mC]*e[5mC]*d[5mC]*dA*dG*d[5mC]*dA*dA*dA*d[5mC]*dT*dT*eG*e[5mC]*e[5mC]*e[5mC]*eG) [compound 18122]	–	–	42.0%	58.0%
